Measurements: patent US10071074B2, “Thieno-indole moieties and methods of treating using the same” (NERVIANO MEDICAL SCIENCES S.R.L., priority 2012, dated 2018)
pIC50: −log10 of the molar value. Structures can show the parent of a compound that is named as a salt.

system: A2780 human ovarian cancer cells; test: In vitro cell proliferation assay (CellTiter-Glo); type: cell-based; conditions: A2780 human ovarian cancer cells, 72 h treatment, CellTiter-Glo; read-out: IC50 value
Description: A2780 human ovarian and MCF7 human breast cancer cells (1250 cells/well) were seeded in white 384 well-plates in complete medium (RPMI1640 or EMEM plus 10% Fetal bovine serum) and treated with compounds dissolved in 0.1% DMSO, 24 h after seeding. The cells were incubated at 37° C. and 5% CO2 and after 72 h the plates were processed using CellTiter-Glo assay (Promega) following the manufacturer's instruction.
CellTiter-Glo is a homogenous method based on the quantification of the ATP present, an indicator of metabolitically active cells. ATP is quantified using a system based on luciferase and D-luciferin resulting into light generation. The luminescent signal is proportional to the number of cells present in culture.
Briefly, 25 μL/well of reagent solution are added to each well and after 5 minutes shaking microplates are read by a luminometer. The luminescent signal is proportional to the number of cells present in culture.

Cc1csc2c1[C@]13C[C@H]1CN(C(=O)c1cc(NC(=O)c4cc(NC(=O)c5cc([N+](=O)[O-])cn5C)cn4C)cn1C)C3=CC2=O [compound 6, 1-methyl-N-(1-methyl-5-{[(3bS,4aR)-3-methyl-8-oxo-4a,5-dihydro-4H-cyclopropa[c]thieno[3,2-e]indol-6(8H)-yl]carbonyl}-1H-pyrrol-3-yl)-4-4{[(1-methyl-4-nitro-1H-pyrrol-2-yl)carbonyl]amino}-1H-pyrrole-2-carboxamide] and Cc1csc2c1[C@]13C[C@H]1CN(C(=O)Nc1cc(C(=O)Nc4cc(C(=O)Nc5cc(C(=O)NCCC(N)=O)n(C)c5)n(C)c4)n(C)c1)C3=CC2=O [compound 9, (3bS,4aR)-N-(5-{[5-({5-[(3-amino-3-oxopropyl)carbamoyl]-1-methyl-1H-pyrrol-3-yl}carbamoyl)-1-methyl-1H-pyrrol-3-yl]carbamoyl}-1-methyl-1H-pyrrol-3-yl)-3-methyl-8-oxo-4a,5-dihydro-4H-cyclopropa[c]thieno[3,2-e]indole-6(8H)-carboxamide] cannot be ordered by pIC50: greater than 7.30 for the first, greater than 7.30 for the second.

Cc1csc2c1[C@@]13C[C@@H]1CN(C(=O)/C=C/c1c[nH]c4ncccc14)C3=CC2=O [compound 8, (3bR,4aS)-3-methyl-6-[(2E)-3-(1H-pyrrolo[2,3-b]pyridin-3-yl)prop-2-enoyl]-4,4a,5,6-tetrahydro-8H-cyclopropa[c]thieno[3,2-e]indol-8-one] and Cc1csc2c1[C@]13C[C@H]1CN(C(=O)/C=C/c1c[nH]c4ncccc14)C3=CC2=O [Compd. 7, (3bS,4aR)-3-methyl-6-[(2E)-3-(1H-pyrrolo[2,3-b]pyridin-3-yl)prop-2-enoyl]-4,4a,5,6-tetrahydro-8H-cyclopropa[c]thieno[3,2-e]indo-8-one] cannot be ordered by pIC50: greater than 11.00 for the first, greater than 7.30 for the second.

Cc1csc2c1[C@@]13C[C@@H]1CN(C(=O)c1cc4cc(NC(=O)c5cc6cc(NC(=O)OC(C)(C)C)ccc6[nH]5)ccc4[nH]1)C3=CC2=O [compound 20, tert-butyl {2-[(2-{[(3bR,4aS)-3-methyl-8-oxo-4a,5-dihydro-4H-cyclopropa[c]thieno[3,2-e]indol-6(8H)-yl]carbonyl}-1H-indol-5-yl)carbamoyl]-1H-indol-5-yl}carbamate] and Cc1csc2c(O)cc3c(c12)[C@H](CCl)CN3C(=O)c1cc2cc(NC(=O)c3cc4cc(NC(=O)OC(C)(C)C)ccc4[nH]3)ccc2[nH]1 [Compd. 18] cannot be ordered by pIC50: greater than 10.00 for the first, greater than 11.00 for the second.

Cc1csc2c1[C@@]13C[C@@H]1CN(C(=O)c1ccc4c(NC(=O)c5ccc6cc[nH]c6c5)c[nH]c4c1)C3=CC2=O [Compd. 5, N-(6-{[(3bR,4aS)-3-methyl-8-oxo-4a,5-dihydro-4H-cyclopropa[c]thieno[3,2-e]indol-6(8H)-yl]carbonyl}-1H-indol-3-yl)-1H-indole-6-carboxamide] and Cc1csc2c(O)cc3c(c12)[C@H](CCl)CN3C(=O)c1ccc2c(NC(=O)c3ccc4cc[nH]c4c3)c[nH]c2c1 [Compd. 1] cannot be ordered by pIC50: greater than 7.30 for the first, greater than 7.30 for the second.

Cc1csc2c(O)cc3c(c12)[C@H](CCl)CN3C(=O)c1cc2cc(NC(=O)c3cc4cc(OCCN5CCCC5)ccc4[nH]3)ccc2[nH]1 [compound 17, N-(2-{[(8S)-8-(chloromethyl)-4-hydroxy-1-methyl-7,8-dihydro-6H-thieno[3,2-e]indol-6-yl]carbonyl}-1H-indol-5-yl)-5-[2-(pyrrolidin-1-yl)ethoxy]-1H-indole-2-carboxamide] and Cc1csc2c(O)cc3c(c12)[C@H](CCl)CN3C(=O)c1cc2cc(OCCN3CCCC3)ccc2[nH]1 [Compd. 37, [(8S)-8-(chloromethyl)-4-hydroxy-1-methyl-7,8-dihydro-6H-thieno[3,2-e]indol-6-yl]{5-[2-(pyrrolidin-1-yl)ethoxy]-1H-indol-2-yl}methanone hydrochloride] cannot be ordered by pIC50: greater than 10.00 for the first, greater than 11.00 for the second.

same assay, conditions: Homo sapiens, A2780, 72 h, read-out: IC50 value

Cc1csc2c(OC(=O)N3CCN(C)CC3)cc3c(c12)[C@H](CCl)CN3C(=O)c1cc2cc(NC(=O)c3cc4cc(N)ccc4[nH]3)ccc2[nH]1 [compound 23, (8S)-6-[(5-{[(5-amino-1H-indol-2-yl)carbonyl]amino}-1H-indo-2-yl)carbonyl]-8-(chloromethyl)-1-methyl-7,8-dihydro-6H-thieno[3,2-e]indol-4-yl 4-methylpiperazine-1-carboxylate hydrochloride] and Cc1csc2c(OC(=O)N3CCN(C)CC3)cc3c(c12)[C@H](CCl)CN3C(=O)c1cc2cc(NC(=O)c3cc4cc(NC(=O)OC(C)(C)C)ccc4[nH]3)ccc2[nH]1 [Compd. 22, (8S)-6-({5-[({5-[(tert-butoxycarbonyl)amino]-1H-indol-2-yl}carbonyl)amino]-1H-indol-2-yl}carbonyl)-8-(chloromethyl)-1-methyl-7,8-dihydro-6H-thieno[3,2-e]indol-4-yl 4-methylpiperazine-1-carboxylate] cannot be ordered by pIC50: greater than 7.30 for the first, greater than 10.00 for the second.

biological target: cathepsin B (Homo sapiens, UniProt P07858); test: Release of a drug moiety from a conjugate in presence of cathepsin; type: biochemical; conditions: 0.2 unit cathepsin B, sodium acetate buffer pH 5.5, 1 mM Cys, 2 hours at 40° C., HPLC ESI-MS analysis
Description: The conjugate A1 was incubated with 0.2 unit of cathepsin B in sodium acetate buffer pH 5.5 and 1 mM Cys for 2 hours at 40° C.
Disappearance of the conjugate A1 and release of the corresponding compound of formula (II), i.e. compd. 37, as well as of its precursor A3, confirms the breaking of the Z peptidic linker of the conjugate.

For Cc1csc2c(OC(=O)N(C)CCN(C)C(=O)OCc3ccc(NC(=O)[C@H](CCCNC(N)=O)NC(=O)[C@@H](NC(=O)CCCCCN4C(=O)CC(SC[C@H](N)C(=O)O)C4=O)C(C)C)cc3)cc3c(c12)[C@H](CCl)CN3C(=O)c1cc2cc(OCCN3CCCC3)ccc2[nH]1 (stereo partly shown) [conjugate A1], the “release of the compound of formula (II) (compd. 37) from the conjugate” value was “Complete release”.
